Measurements as given in patent EP0982397A1, “Inhibition of contact system activation” (Stichting Sanquin Bloedvoorziening, priority 1998, dated 2000).
Each block holds one molecule with its values, some of them ahead of it. Peptide text beside a SMILES is read from it.

What was measured:
[1] = target: FXII; assay: Binding of 125I-FXII to kaolin; design: species or system human
Description: • Figure 1: Effects of mAb KOK5 on activation of purified FXII. • A: Activation by kallikrein: Twenty-five µl of prewarmed FXII (125 nM), 25 µl of serial dilutions of mAb KOK5, 25 µl of prewarmed kallikrein (25 nM) and 25 µl of buffer yielding final concentrations of 50 mM Tris-HCl, 150 mM NaCl, 0.1% (wt/vol) Tween-20, pH 7.8, were incubated for 30 min at 37°C. Thereafter, 50 µl of assay mixture containing the chromogenic substrate S-2302 were added and the increase in absorbance at 405 nm at 37°C was recorded. Results are expressed as percentage of the total amount of FXII present in the mixture (as determined by limited digestion with 10 nM trypsin), and represent the mean ± SE of two experiments. […] Thereafter, 50 µl of assay mixture containing S-2302 were added and the increase in absorbance at 405 nm at 37°C was recorded. […] The reaction was stopped by adding 120 µl of stop buffer (PBS, 0.1 mg/ml SBTI, Polybrene 0.05% wt/vol) and the amount of FXIIa-C1-inhibitor (+---+), kallikrein-C1-inhibitor (o- -o) and factor XIa-C1-inhibitor (●- -●) complexes generated was measured. Results, expressed as percentage of the maximum amount of complexes generated in pooled plasma by DS500 (50 µg/ml), represent the mean values ± S.D. from three different experiments. • Figure 3. […] Binding was expressed as the percentage of the total counts that were found in the pellet in the absence of mAbs. […]

[2] = test system: contact system; assay: Inhibition by synthetic peptides of contact system activation in EDTA-plasma induced by DS500; type: biochemical, human; conditions: Activator DS500
Description: (§1) • Figure 1: Effects of mAb KOK5 on activation of purified FXII. • A: Activation by kallikrein: Twenty-five µl of prewarmed FXII (125 nM), 25 µl of serial dilutions of mAb KOK5, 25 µl of prewarmed kallikrein (25 nM) and 25 µl of buffer yielding final concentrations of 50 mM Tris-HCl, 150 mM NaCl, 0.1% (wt/vol) Tween-20, pH 7.8, were incubated for 30 min at 37°C. Thereafter, 50 µl of assay mixture containing the chromogenic substrate S-2302 were added and the increase in absorbance at 405 nm at 37°C was recorded. Results are expressed as percentage of the total amount of FXII present in the mixture (as determined by limited digestion with 10 nM trypsin), and represent the mean ± SE of two experiments. […] Thereafter, 50 µl of assay mixture containing S-2302 were added and the increase in absorbance at 405 nm at 37°C was recorded. […] The reaction was stopped by adding 120 µl of stop buffer (PBS, 0.1 mg/ml SBTI, Polybrene 0.05% wt/vol) and the amount of FXIIa-C1-inhibitor (+---+), kallikrein-C1-inhibitor (o- -o) and factor XIa-C1-inhibitor (●- -●) complexes generated was measured. Results, expressed as percentage of the maximum amount of complexes generated in pooled plasma by DS500 (50 µg/ml), represent the mean values ± S.D. from three different experiments. • Figure 3. […] In addition 50 µl of purified FXII (500 nM) were first incubated for 2 min with kaolin and then with serial dilutions of mAb KOK5 for 15 min (+---+); whereafter the residual FXII clotting activity was measured. Results are expressed as percentage of inhibition compared to the clotting activity measured in the absence of mAbs and are the mean ± SE of two experiments. • Figure 4. […] After 10 min at room temperature tubes were centrifuged for 2 min at 10,000 g and the pellets were counted for radioactivity. Binding was expressed as the percentage of the total counts that were found in the pellet in the absence of mAbs. […] Bound FXII was detected by subsequent incubation with ^125I-anti-FXII antibodies. Results are expressed as percentage of the ^125I-anti-FXII added and represent the means of two experiments. • Figure 6. […]

[3] = test system: contact system; assay: Inhibition by synthetic peptides of contact system activation in EDTA-plasma induced by kaolin; type: biochemical, human; conditions: Activator kaolin
Description: as §1, with “measured.” for “measured. Results, expressed as percentage of the maximum amount of complexes generated in pooled plasma by DS500 (50 µg/ml), represent the mean values ± S.D. from three different experiments. • Figure 3.”

[4] = target: mAb KOK5; assay: cell-based or functional assay
[5] = read-out: FXIIa-C1inh (IC50 values)
[6] = read-out: FXIa-C1inh (IC50 values)
[7] = read-out: kal-C1inh (IC50 values)

IC50 relative to that of FXII itself (times higher) ([1]; inhibition of binding of 125I-FXII to kaolin): 10,000 times
IC50 ([1]; synthetic peptides, read-out: IC50, inhibition of binding of 125I-FXII to kaolin): 0.9 mM
IC50 [2, 5]: 3.15 ± 0.85 mM
IC50 [2, 6]: 6.75 ± 1.25 mM
IC50 [2, 7]: 5.25 ± 2.7 mM
IC50 [3, 5]: 7 ± 1.4 mM
IC50 [3, 6]: 7.5 ± 0.5 mM
IC50 [3, 7]: 6 ± 2.1 mM
Molecule: C[C@@H](O)[C@H](NC(=O)[C@H](CS)NC(=O)[C@H](CCC(N)=O)NC(=O)[C@H](Cc1c[nH]cn1)NC(=O)[C@@H](N)CO)C(=O)N[C@@H](Cc1c[nH]cn1)C(=O)N[C@@H](CCCNC(=N)N)C(=O)N[C@@H](CCCCN)C(=O)N[C@@H](CS)C(=O)N[C@@H](Cc1ccc(O)cc1)C(=O)O [SHQCTHRKCY] (H-SHQCTHRKCY-OH)

inhibition of FXII activation by kallikrein in the presence of mAb KOK5 (IC50) [4]: 0.05 mM
B1: synthetic peptide … (peptide)
peptide: AEGEFRFQTPQWE
